target: hTREM2 (Homo sapiens, UniProt Q9NZC2); assay: TREM2 activity by cellular Syk phosphorylation (AlphaScreen/AlphaLISA) in TREM2/DAP12-HEK cells, used for Examples 1-305; format: cell-based; set-up: expressed in transfected cells; conditions: HEK293 Cells
Excerpt: In vitro Measurement of Triggering Receptor Expressed on Myeloid Cells 2 activity using cellular phosphorylation of Spleen Tyrosine Kinase (“Syk”) Assays used for Examples 1-305
Pharmacological measurements of TREM2 signaling through DAP12 were made with TREM2 and DAP12 overexpressing HEK293 cells stable cell lines that had been single-cell cloned (“TREM2/DAP12-HEK”). The readout of the TREM2 signaling utilized Perkin Elmer AlphaScreen/AlphaLISA technology monitoring the phosphorylation levels of the Syk kinase. TREM2/DAP12-HEK cell lines were cultured in DMEM-F12 (Corning 10-092-CM) supplemented with 1X Penicillin/Streptomycin (Corning 30-002-CI), 1X GlutaMAX (Gibco 35050-061), and 10% Fetal Bovine Serum (Life Technologies 10099) referred to as “HEK Culture Medium”. Suspensions of TREM2/DAP12-HEK cells were prepared in HEK Culture Medium and dispensed into 384-well poly-D-lysine coated microplates (Corning 354661) at a density of 20,000 cells/well using a Multidrop Combi peristaltic microplate dispenser (Thermo), 25 μL volume of cell suspension/well. Plates containing cells were then incubated for 20 hours in a humidified cell culture incubator at 37° C. with 5% CO2 (Thermo). After incubation, culture medium was removed from all wells of each microplate and replaced with 20 μL of “Assay Buffer” comprised of DMEM-F12 (Corning 10-092-CM) supplemented with 1X Penicillin/Streptomycin (Corning 30-002-CI) and 0.1% Pluronic F-68 Polyol (MP Biomedical 092750049) using a Bravo 384-well pipette-based liquid handling system (Agilent). Assay Buffer contained diluted test articles (in 1% final DMSO concentration for compounds) or 100 nM anti-human/mouse TREM2 antibody (R&D Systems MAB17291) as a positive control, or 100 nM or rat IgG2B isotype Ab as a negative control (R&D Systems MAB0061). The plates were incubated with test articles and controls for 45 minutes at room temperature and then the medium was aspirated/removed from each well of the plates. A Multidrop Combi peristaltic liquid handler (Thermo) was used to dispense 15 μL/well of “Cell Lysis Immunoassay Buffer”. The Cell Lysis Immunoassay Buffer contained M-PER Mammalian Protein Extraction Reagent (Pierce/ThermoFisher 78505), 1X Halt Phosphatase Inhibitor Cocktail (ThermoFisher #78427), 0.1875 nM anti-phospho-Syk (Tyr525/526) (C87C1) rabbit mAb (Cell Signaling Technologies catalog #2710), and 1.5 nM biotinylated Mouse anti-human Syk (4D10) antibody (BD Biosciences, catalog #624008). Plates were incubated for 1 hour at room temperature after the addition of the Cell Lysis Immunoassay Buffer. The Multidrop Combi liquid handler was used to dispense 15 μL of AlphaScreen Acceptor Bead Solution containing 7.5 μg/mL anti-rabbit IgG (Fc specific) AlphaLISA Acceptor Beads (Perkin Elmer AL104R) in 1X Immunoassay buffer (Perkin Elmer AL000F) to each well of the microplates. The plates were incubated for 2 hours at room temperature. Following the incubation with the AlphaLISA Acceptor Bead Solution, a Multidrop Combi liquid handler (Thermo) was used to dispense 15 μL of AlphaScreen Donor Bead Solution containing 30 μg/mL of AlphaScreen Streptavidin Donor beads (Perkin Elmer 6760002B) in 1X Immunoassay buffer (Perkin Elmer AL000F) to each well of the microplates. Microplates were incubated for 2 hours protected from light sources as the AlphaScreen reagents are light sensitive. Once the final incubation was completed, an AlphaScreen signal was acquired from the donor and acceptor beads using an Envision high throughput multi-modal microplate reader (Perkin Elmer) calibrated to the plate type with the AlphaScreen mirror and filter-set in 384-well mode, 680 nanometer excitation wavelength. The total measurement time per well was 550 milliseconds with a 180 millisecond excitation time. […]

hTREM2, sequence (Q9NZC2 19-230): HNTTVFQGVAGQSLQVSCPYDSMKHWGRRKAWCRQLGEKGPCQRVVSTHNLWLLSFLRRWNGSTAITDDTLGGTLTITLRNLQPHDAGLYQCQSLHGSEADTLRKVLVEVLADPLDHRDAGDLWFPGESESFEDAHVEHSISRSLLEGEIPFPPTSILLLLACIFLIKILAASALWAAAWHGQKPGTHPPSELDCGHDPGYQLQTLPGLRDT
hTREM2, sequence (O43914 22-113 partner): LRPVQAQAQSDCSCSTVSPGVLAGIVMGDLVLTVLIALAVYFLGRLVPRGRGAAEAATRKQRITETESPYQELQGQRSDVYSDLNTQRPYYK

Compound | EC50 | hTREM2 Emax
Cc1cc([C@H]2CN(c3nc(C45CC(C(F)(F)F)(C4)C5)c4ccc(C)nc4n3)CCO2)ccn1 [Example 102, 7-methyl-2-((2S)-2-(2-methyl-4-pyridinyl)-4-morpholinyl)-4-(3-(trifluoromethyl)bicyclo[1.1.1]pentan-1-yl)pyrido[2,3-d]pyrimidine] | ≤ 50 nM | + (Emax>45 and ≤100)
Cc1cc2c(OC[C@H]3CC3(C)C)nc(N3CCO[C@@H](c4cnn(C)c4)C3)nc2nc1C [Example 111, 4-(((1S)-2,2-dimethylcyclopropyl)methoxy)-6,7-dimethyl-2-((2S)-2-(1-methyl-1H-pyrazol-4-yl)-4-morpholinyl)pyrido[2,3-d]pyrimidine] | 500 to 3000 nM | + (Emax>45 and ≤100)
CN1Cc2c(-c3ccc(Cl)cc3F)cc(N3CCO[C@H](c4cnn(C)c4)C3)nc2C1=O [Example 304, (R)-4-(4-chloro-2-fluorophenyl)-6-methyl-2-(2-(1-methyl-1H-pyrazol-4-yl)morpholino)-5,6-dihydro-7H-pyrrolo [3,4-b]pyridin-7-one] | 500 to 3000 nM | +++ (Emax>150 and ≤250)
Cc1cc([C@H]2CN(c3nc4nc(C)c(C)nc4c([C@H]4C[C@H](C(F)F)C4)n3)CCO2)ccn1 [Example 54, 4-(trans-3-(difluoromethyl)cyclobutyl)-6,7-dimethyl-2-((2S)-2-(2-methyl-4-pyridinyl)-4-morpholinyl)pteridine] | ≤ 50 nM | ++ (Emax>100 and ≤150)
Cc1nc2nc([C@@H]3C[C@@H](C)O[C@@H](c4cnn(C)c4)C3)cc(-c3ccc(Cl)cc3F)c2nc1C [Example 284, 8-(4-chloro-2-fluorophenyl)-2,3-dimethyl-6-((2R,4R,6R)-2-methyl-6-(1-methyl-1H-pyrazol-4-yl)tetrahydro-2H-pyran-4-yl)pyrido[2,3-b]pyrazine] | 50 to 500 nM | + (Emax>45 and ≤100)
Cc1nc2nc(N3CCO[C@@H](c4cnn(C)c4)C3)nc([C@H]3CC[C@H](C(F)(F)F)CC3)c2nc1C [Example 132, 6,7-dimethyl-2-((2S)-2-(1-methyl-1H-pyrazol-4-yl)-4-morpholinyl)-4-(trans-4-(trifluoromethyl)cyclohexyl)pteridine] | ≤ 50 nM | ++ (Emax>100 and ≤150)
Cc1nc2nc([C@H]3CCO[C@@H](c4cnn(C)c4)C3)nc(-c3ccc(F)cc3F)c2nc1C (single isomer, unassigned) [Example 182] | ≤ 50 nM | +++ (Emax>150 and ≤250)
Cc1cc([C@H]2CN(c3nc4nc(C)c(C)nc4c([C@H]4C[C@@H](C(F)F)C4)n3)CCO2)ccn1 [Example 53, 4-(cis-3-(difluoromethyl)cyclobutyl)-6,7-dimethyl-2-((2S)-2-(2-methyl-4-pyridinyl)-4-morpholinyl)pteridine] | ≤ 50 nM | ++ (Emax>100 and ≤150)
Cc1nc2nc(N3CCO[C@@H](c4cnn(C)c4)C3)nc([C@H]3CC[C@H](C)CC3)c2nc1C [Example 136, 6,7-dimethyl-4-(trans-4-methylcyclohexyl)-2-((2S)-2-(1-methyl-1H-pyrazol-4-yl)-4-morpholinyl)pteridine] | ≤ 50 nM | +++ (Emax>150 and ≤250)
Cc1cc([C@H]2CN(c3nc(-c4ccc(Cl)cc4F)c4cc(C)c(C)nc4n3)CCO2)cnn1 (single isomer, unassigned) [Example 104] | ≤ 50 nM | +++ (Emax>150 and ≤250)
Cc1nc2nc(N3CCO[C@@H](c4cnn(C)c4)C3)nc([C@H]3C[C@@H](C(F)F)C3)c2nc1C [Example 44, 4-(cis-3-(difluoromethyl)cyclobutyl)-6,7-dimethyl-2-((2S)-2-(1-methyl-1H-pyrazol-4-yl)-4-morpholinyl)pteridine] | 50 to 500 nM | +++ (Emax>150 and ≤250)
Cc1nc2nc(N3CCO[C@@H](c4cnn(C)c4)C3)nc(C3CCC(Cl)CC3)c2nc1C (mixture of isomers) [Example 165, 4-(trans-4-chlorocyclohexyl)-6,7-dimethyl-2-((2S)-2-(1-methyl-1H-pyrazol-4-yl)-4-morpholinyl) pteridine] | ≤ 50 nM | +++ (Emax>150 and ≤250)

The remaining lines, values ahead:

EC50 | hTREM2 Emax | Compound
50 to 500 nM | ++ (Emax>100 and ≤150) | Cc1ccc2c(C3CCC(F)(F)CC3)nc(N3CCO[C@@H](c4cnn(C)c4)C3)nc2n1 [Example 141, 4-(4,4-difluorocyclohexyl)-7-methyl-2-((2S)-2-(1-methyl-1H-pyrazol-4-yl)-4-morpholinyl)pyrido [2,3-d]pyrimidine]
≤ 50 nM | ++++ (Emax>250) | Cc1ccc(-c2nc([C@H]3CCO[C@@H](c4ccnc(C)c4)C3)nc3nc(C)c(C)cc23)c(F)c1 (single isomer, unassigned) [Example 222]
50 to 500 nM | ++++ (Emax>250) | Cc1ccc(-c2nc([C@@H]3CCO[C@H](c4ccnc(C)c4)C3)nc3nc(C)c(C)cc23)c(F)c1 (single isomer, unassigned) [Example 223]
≤ 50 nM | ++++ (Emax>250) | Cc1cc2c(-c3ccc(Cl)cc3F)cc(N3CCO[C@@H](c4cnn(C)c4)C3)nc2nc1C [Example 157, 5-(4-chloro-2-fluorophenyl)-2,3-dimethyl-7-((2S)-2-(1-methyl-1H-pyrazol-4-yl)-4-morpholinyl)-1,8-naphthyridine]
≤ 50 nM | ++++ (Emax>250) | Cc1nc2nc([C@H]3CCO[C@@H](c4cnn(C)c4)C3)nc(-c3ccc(Cl)cc3F)c2nc1C (single isomer, unassigned) [Example 178]
50 to 500 nM | ++++ (Emax>250) | Cc1cc([C@@H]2C[C@H](c3nc(-c4ccc(Cl)cc4F)c4ncc(C)nc4n3)CCO2)ccn1 (single isomer, unassigned) [Example 172]
50 to 500 nM | +++ (Emax>150 and ≤250) | Cc1ccc2c(-c3ccc(Cl)cc3F)nc(N3CCO[C@@H](c4cnc(C)nc4)C3)nc2n1 (single isomer, unassigned) [Example 90]
3000 to 100000 nM | +++ (Emax>150 and ≤250) | Cc1cnc2c(-c3ccc(Cl)cc3F)cc([C@@H]3CCO[C@H](c4cnn(C)c4)C3)nc2n1 [Example 271, 8-(4-chloro-2-fluorophenyl)-3-methyl-6-((2S,4R)-2-(1-methyl-1H-pyrazol-4-yl)tetrahydro-2H-pyran-4-yl)pyrido [2,3-b]pyrazine]
500 to 3000 nM | – | Cc1cc([C@@H]2C[C@@H](c3nc(-c4ccc(F)cc4F)c4ccc(C)nc4n3)CCO2)ccn1 (single isomer, unassigned) [Example 221]
3000 to 100000 nM | – | Cc1cc2c(OC[C@H]3C[C@@H](C(F)(F)F)C3)nc(N3CCO[C@@H](c4cnn(C)c4)C3)nc2nc1C [Example 109, 6,7-dimethyl-2-((2S)-2-(1-methyl-1H-pyrazol-4-yl)-4-morpholinyl)-4-((cis-3-(trifluoromethyl)cyclobutyl)methoxy)pyrido[2,3-d]pyrimidine]
50 to 500 nM | +++ (Emax>150 and ≤250) | Cc1nc2nc([C@H]3CCO[C@@H](c4cnn(C)c4)C3)nc([C@H]3C[C@H](C(F)(F)F)C3)c2nc1C (single isomer, unassigned) [Example 205]
≤ 50 nM | +++ (Emax>150 and ≤250) | Cc1cc2c(nc(N3CCO[C@@H](c4cnn(C)c4)C3)nc2[C@H]2C[C@H](C(F)(F)F)C2)nc1C [Example 112, 6,7-dimethyl-2-((2S)-2-(1-methyl-1H-pyrazol-4-yl)-4-morpholinyl)-4-(trans-3-(trifluoromethyl)cyclobutyl)pyrido[2,3-d]pyrimidine]

— patent publication US11884675B2, “Heterocyclic compounds as triggering receptor expressed on myeloid cells 2 agonists and methods of use” (AMGEN INC., priority 2020, dated 2024)
